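All cell lines were grown in 96-well plates and treated with compound for 48 hours. At the GI50, growth is halved. TGI: total growth inhibition.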
Key:
Experiment in all cases: NCI-60 cell line screen, 48 h
[1] = tested on: OVCAR-8 ovarian
[2] = tested on: SF-295 CNS
[3] = tested on: OVCAR-4 ovarian
[4] = tested on: IGROV1 ovarian
[5] = tested on: A498 renal
[6] = tested on: HCT-116 colon
[7] = tested on: A549 NSCLC
[8] = tested on: MCF7 breast
[9] = tested on: HT29 colon
[10] = tested on: NCI-H226 lung
[11] = tested on: SR leukemia
[12] = tested on: HCT-15 colon
[13] = tested on: RPMI-8226 leukemia
[14] = tested on: MALME-3M melanoma
[15] = tested on: K-562 leukemia
[16] = tested on: SW-620 colon
[17] = tested on: LOX IMVI melanoma
[18] = tested on: SF-539 CNS
[19] = tested on: CCRF-CEM leukemia
[20] = tested on: SK-OV-3 ovarian
[21] = tested on: HCC-2998 colon
[22] = tested on: TK-10 renal
[23] = tested on: PC-3 prostate
[24] = tested on: NCI-H522 lung
[25] = tested on: DU-145 prostate
[26] = tested on: OVCAR-3 ovarian
[27] = tested on: HS 578T breast
[28] = tested on: SK-MEL-28 melanoma
[29] = tested on: BT-549 breast
[30] = tested on: EKVX NSCLC
[31] = tested on: MDA-MB-435
[32] = tested on: SN12C renal
[33] = tested on: MOLT-4 leukemia
[34] = tested on: 786-0 renal
[35] = tested on: HOP-92 NSCLC
[36] = tested on: OVCAR-5 ovarian
[37] = tested on: U251 CNS
[38] = tested on: HOP-62 NSCLC
[39] = tested on: SK-MEL-5 melanoma
[40] = tested on: COLO 205 colon
[41] = tested on: UACC-257 melanoma
[42] = tested on: KM12 colon
[43] = tested on: NCI-H460 lung
[44] = tested on: T-47D breast
[45] = tested on: NCI-H23 lung
[46] = tested on: SNB-19 CNS
[47] = tested on: UACC-62 melanoma
[48] = tested on: CAKI-1 renal
[49] = tested on: NCI/ADR-RES ovarian
[50] = tested on: ACHN renal
[51] = tested on: MDA-MB-468 breast
[52] = tested on: HL-60(TB) leukemia
[53] = tested on: RXF 393 renal
[54] = tested on: SF-268 CNS
[55] = tested on: M14 melanoma

## O=C(CSc1nc2sc3c(c2c(=O)n1-c1ccc(Cl)cc1)CCCC3)N/N=C/C=C/c1ccccc1
[1]
  GI50: 3.17 µM
  TGI: 11.7 µM
[2]
  GI50: 4.92 µM
  TGI: 22.4 µM
[3]
  GI50: 3.42 µM
  TGI: 15.9 µM
[4]
  GI50: 14.1 µM
  TGI: 35.7 µM
[5]
  GI50: 7.71 µM
  TGI: 25.4 µM
[6]
  GI50: 3.03 µM
  TGI: 13 µM
[7]
  GI50: 3.58 µM
  TGI: 15.5 µM
[8]
  GI50: 3.35 µM
  TGI: 18.4 µM
[9]
  GI50: 2.61 µM
  TGI: 6.48 µM
[10]
  GI50: 5.19 µM
  TGI: 23 µM
[11]
  GI50: 26.5 µM
  TGI: > 100 µM
[12]
  GI50: 2.96 µM
  TGI: 10.4 µM
[13]
  GI50: 4.51 µM
  TGI: 34 µM
[14]
  GI50: 1.99 µM
  TGI: 4.85 µM
[15]
  GI50: 4.68 µM
  TGI: > 100 µM
[16]
  GI50: 2.7 µM
  TGI: 8.75 µM
[17]
  GI50: 9.02 µM
  TGI: 22.2 µM
[18]
  GI50: 24.6 µM
  TGI: > 100 µM
[19]
  GI50: 11.5 µM
  TGI: 69.9 µM
[20]
  GI50: 14.2 µM
  TGI: 38.4 µM
[21]
  GI50: 2.75 µM
  TGI: 7.05 µM
[22]
  GI50: 2.8 µM
  TGI: 9.84 µM
[23]
  GI50: 3.04 µM
  TGI: 17.9 µM
[24]
  GI50: 3.17 µM
  TGI: 12.6 µM
[25]
  GI50: 5.3 µM
  TGI: > 100 µM
[26]
  GI50: 100 µM
  TGI: > 100 µM
[27]
  GI50: 4.64 µM
  TGI: 56.5 µM
[28]
  GI50: 4.23 µM
  TGI: 16.5 µM
[29]
  GI50: 3.15 µM
  TGI: 7.65 µM
[30]
  GI50: 8.81 µM
  TGI: > 100 µM
[31]
  GI50: 5.28 µM
  TGI: 22.5 µM
[32]
  GI50: 18 µM
  TGI: > 100 µM
[33]
  GI50: 3.57 µM
  TGI: 12.9 µM
[34]
  GI50: 5.51 µM
  TGI: 20.7 µM
[35]
  GI50: 3.91 µM
  TGI: 25.9 µM
[36]
  GI50: 4.87 µM
  TGI: 27.7 µM
[37]
  GI50: 3.3 µM
  TGI: 11.7 µM
[38]
  GI50: 3.31 µM
  TGI: 13 µM
[39]
  GI50: 3.12 µM
  TGI: 10.8 µM
[40]
  GI50: 1.71 µM
  TGI: 3.4 µM
[41]
  GI50: 11.8 µM
  TGI: 87.8 µM
[42]
  GI50: 16.7 µM
  TGI: 63.6 µM
[43]
  GI50: 3.14 µM
  TGI: 10.6 µM
[44]
  GI50: 2.39 µM
  TGI: 6.92 µM
[45]
  GI50: 2.12 µM
  TGI: 5.78 µM
[46]
  GI50: 18.2 µM
  TGI: > 100 µM
[47]
  GI50: 2.84 µM
  TGI: 10.9 µM
[48]
  GI50: 43.1 µM
  TGI: > 100 µM
[49]
  GI50: 3.58 µM
  TGI: 16 µM
[50]
  GI50: 4.22 µM
  TGI: 29.2 µM
[51]
  GI50: 1.85 µM
  TGI: 4.11 µM
[52]
  GI50: > 100 µM
  TGI: > 100 µM
[53]
  GI50: 1.93 µM
  TGI: 4.75 µM
[54]
  GI50: 24.9 µM
  TGI: > 100 µM
[55]
  GI50: 3.44 µM
  TGI: 15 µM

— PubChem BioAssay (NCI)
